Source: doi:10.1101/2021.09.30.462449v1 (biorxiv, 2021)

What was measured:
Assay in all cases: biochemical
Conditions in all cases: read-out: % inhibition mean (Z'Lyte)
KIT = KIT (Homo sapiens, UniProt P10721)
PDGFRA T674I = PDGFRA T674I (Homo sapiens, UniProt P16234, T674I)
RPS6KA2 (RSK3) = RPS6KA2 (RSK3) (Homo sapiens, UniProt Q15349)
CDK5/p35 = CDK5/p35 (Homo sapiens, UniProt Q00535)
MAPK14 (p38 alpha) = MAPK14 (p38 alpha) (Homo sapiens, UniProt Q16539)
CSNK1E (CK1 epsilon) = CSNK1E (CK1 epsilon) (Homo sapiens, UniProt P49674)
AKT2 (PKB beta) = AKT2 (PKB beta) (Homo sapiens, UniProt P31751)
CDK17/cyclin Y = CDK17/cyclin Y (Homo sapiens, UniProt Q00537)
INSR = INSR (Homo sapiens, UniProt P06213)
STK4 (MST1) = STK4 (MST1) (Homo sapiens, UniProt Q13043)
NIM1K = NIM1K (Homo sapiens, UniProt Q8IY84)
FGFR3 K650E = FGFR3 K650E (Homo sapiens, UniProt P22607, K650E)
[1] = biological target: CSNK1E (CK1 epsilon) R178C (Homo sapiens, UniProt P49674, R178C)
MAPK11 (p38 beta) = MAPK11 (p38 beta) (Homo sapiens, UniProt Q15759)
CSNK1G1 (CK1 gamma 1) = CSNK1G1 (CK1 gamma 1) (Homo sapiens, UniProt Q9HCP0)
IRAK4 = IRAK4 (Homo sapiens, UniProt Q9NWZ3)
KSR2 = KSR2 (Homo sapiens, UniProt Q6VAB6)
PRKG2 (PKG2) = PRKG2 (PKG2) (Homo sapiens, UniProt Q13237)
GSK3B (GSK3 beta) = GSK3B (GSK3 beta) (Homo sapiens, UniProt P49841)
RPS6KA1 (RSK1) = RPS6KA1 (RSK1) (Homo sapiens, UniProt Q15418)
PDGFRA D842V = PDGFRA D842V (Homo sapiens, UniProt P16234, D842V)
PAK2 (PAK65) = PAK2 (PAK65) (Homo sapiens, UniProt Q13177)
ABL1 = ABL1 (Homo sapiens, UniProt P00519)
PRKCZ (PKC zeta) = PRKCZ (PKC zeta) (Homo sapiens, UniProt Q05513)
STK25 (YSK1) = STK25 (YSK1) (Homo sapiens, UniProt O00506)
MAP2K6 (MKK6) = MAP2K6 (MKK6) (Homo sapiens, UniProt P52564)
IKBKB (IKK beta) = IKBKB (IKK beta) (Homo sapiens, UniProt O14920)
MET M1250T = MET M1250T (Homo sapiens, UniProt P08581, M1250T)

Sequence of KSR2 (Q6VAB6 whole entry): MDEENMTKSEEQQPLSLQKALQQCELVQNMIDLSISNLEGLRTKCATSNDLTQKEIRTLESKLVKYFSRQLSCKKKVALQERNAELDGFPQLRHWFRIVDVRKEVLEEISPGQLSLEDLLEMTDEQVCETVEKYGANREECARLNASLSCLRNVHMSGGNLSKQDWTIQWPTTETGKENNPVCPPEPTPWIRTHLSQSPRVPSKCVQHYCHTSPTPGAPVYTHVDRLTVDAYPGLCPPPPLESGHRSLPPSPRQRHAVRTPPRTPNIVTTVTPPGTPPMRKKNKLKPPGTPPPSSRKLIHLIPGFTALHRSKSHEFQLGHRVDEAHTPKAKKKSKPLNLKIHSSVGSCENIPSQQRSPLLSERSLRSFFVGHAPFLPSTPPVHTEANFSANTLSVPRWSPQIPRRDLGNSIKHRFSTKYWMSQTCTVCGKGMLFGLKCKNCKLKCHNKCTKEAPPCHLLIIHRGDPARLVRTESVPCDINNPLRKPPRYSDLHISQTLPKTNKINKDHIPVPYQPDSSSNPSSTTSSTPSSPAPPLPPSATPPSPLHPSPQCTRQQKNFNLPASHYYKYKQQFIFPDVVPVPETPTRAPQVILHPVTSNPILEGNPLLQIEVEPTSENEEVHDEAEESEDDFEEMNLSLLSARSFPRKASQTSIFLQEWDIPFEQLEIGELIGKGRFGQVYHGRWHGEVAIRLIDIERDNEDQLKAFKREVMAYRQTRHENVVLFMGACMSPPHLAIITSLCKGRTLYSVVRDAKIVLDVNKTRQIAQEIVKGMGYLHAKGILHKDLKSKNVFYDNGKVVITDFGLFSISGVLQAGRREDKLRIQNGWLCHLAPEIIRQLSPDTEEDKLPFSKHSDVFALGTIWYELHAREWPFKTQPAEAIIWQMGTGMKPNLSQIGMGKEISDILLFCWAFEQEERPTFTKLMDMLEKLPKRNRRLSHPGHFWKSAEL
Sequence of STK25 (YSK1) (O00506 whole entry): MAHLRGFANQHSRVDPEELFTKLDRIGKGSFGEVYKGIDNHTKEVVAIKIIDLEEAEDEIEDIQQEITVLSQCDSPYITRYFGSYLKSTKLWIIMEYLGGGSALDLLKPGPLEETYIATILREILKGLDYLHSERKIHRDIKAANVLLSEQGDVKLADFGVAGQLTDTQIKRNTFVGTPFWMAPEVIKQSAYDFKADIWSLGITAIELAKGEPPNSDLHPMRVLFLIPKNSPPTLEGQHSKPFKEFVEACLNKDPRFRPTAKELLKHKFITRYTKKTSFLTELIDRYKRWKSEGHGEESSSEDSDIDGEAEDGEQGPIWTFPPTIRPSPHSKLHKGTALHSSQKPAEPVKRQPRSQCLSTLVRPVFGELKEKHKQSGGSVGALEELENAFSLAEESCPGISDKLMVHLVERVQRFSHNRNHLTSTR
Sequence of KIT (P10721 whole entry): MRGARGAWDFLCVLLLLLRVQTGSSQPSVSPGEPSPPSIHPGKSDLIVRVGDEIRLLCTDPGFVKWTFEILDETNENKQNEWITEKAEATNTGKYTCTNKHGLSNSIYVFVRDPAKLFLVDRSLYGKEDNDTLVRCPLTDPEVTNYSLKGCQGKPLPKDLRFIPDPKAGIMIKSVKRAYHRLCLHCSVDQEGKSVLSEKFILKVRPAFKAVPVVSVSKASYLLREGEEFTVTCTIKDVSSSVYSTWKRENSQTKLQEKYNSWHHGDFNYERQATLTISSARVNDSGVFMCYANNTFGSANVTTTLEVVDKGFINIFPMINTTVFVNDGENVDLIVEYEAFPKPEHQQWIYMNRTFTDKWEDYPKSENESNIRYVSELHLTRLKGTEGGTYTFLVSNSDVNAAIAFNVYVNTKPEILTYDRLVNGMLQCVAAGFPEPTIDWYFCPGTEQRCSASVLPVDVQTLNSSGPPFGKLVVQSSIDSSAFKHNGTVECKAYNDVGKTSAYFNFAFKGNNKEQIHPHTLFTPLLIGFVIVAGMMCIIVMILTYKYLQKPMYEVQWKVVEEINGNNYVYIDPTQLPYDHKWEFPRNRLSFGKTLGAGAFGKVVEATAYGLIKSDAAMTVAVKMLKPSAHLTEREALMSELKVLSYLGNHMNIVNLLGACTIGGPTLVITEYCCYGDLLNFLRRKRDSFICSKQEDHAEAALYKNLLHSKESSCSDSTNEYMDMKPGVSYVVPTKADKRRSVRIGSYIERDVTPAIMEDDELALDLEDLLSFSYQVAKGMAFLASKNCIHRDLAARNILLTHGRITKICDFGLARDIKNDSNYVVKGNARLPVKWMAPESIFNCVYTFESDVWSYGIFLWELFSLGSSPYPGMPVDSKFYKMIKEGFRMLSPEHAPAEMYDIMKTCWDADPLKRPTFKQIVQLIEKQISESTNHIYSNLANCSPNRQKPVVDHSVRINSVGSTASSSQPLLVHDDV
Sequence of MAPK14 (p38 alpha) (Q16539 whole entry): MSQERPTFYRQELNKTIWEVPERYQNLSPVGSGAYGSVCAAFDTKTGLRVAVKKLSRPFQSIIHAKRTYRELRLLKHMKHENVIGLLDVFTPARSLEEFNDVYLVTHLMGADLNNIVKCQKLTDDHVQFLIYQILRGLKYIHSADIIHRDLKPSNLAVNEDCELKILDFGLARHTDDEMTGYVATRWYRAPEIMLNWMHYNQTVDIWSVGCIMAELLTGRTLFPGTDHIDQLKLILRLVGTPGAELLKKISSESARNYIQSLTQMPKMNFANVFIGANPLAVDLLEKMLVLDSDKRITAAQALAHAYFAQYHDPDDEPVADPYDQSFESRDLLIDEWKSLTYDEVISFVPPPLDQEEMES
Sequence of CDK5/p35 (Q00535 whole entry): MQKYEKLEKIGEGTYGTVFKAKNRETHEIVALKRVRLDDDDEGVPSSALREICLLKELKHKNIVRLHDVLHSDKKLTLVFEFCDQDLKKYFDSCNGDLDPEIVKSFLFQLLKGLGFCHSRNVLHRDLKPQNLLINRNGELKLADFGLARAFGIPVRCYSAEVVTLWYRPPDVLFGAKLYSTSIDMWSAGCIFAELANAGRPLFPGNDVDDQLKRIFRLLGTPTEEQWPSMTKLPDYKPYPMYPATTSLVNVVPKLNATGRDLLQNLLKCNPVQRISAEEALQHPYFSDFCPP
Sequence of CDK5/p35 (Q15078 whole entry partner): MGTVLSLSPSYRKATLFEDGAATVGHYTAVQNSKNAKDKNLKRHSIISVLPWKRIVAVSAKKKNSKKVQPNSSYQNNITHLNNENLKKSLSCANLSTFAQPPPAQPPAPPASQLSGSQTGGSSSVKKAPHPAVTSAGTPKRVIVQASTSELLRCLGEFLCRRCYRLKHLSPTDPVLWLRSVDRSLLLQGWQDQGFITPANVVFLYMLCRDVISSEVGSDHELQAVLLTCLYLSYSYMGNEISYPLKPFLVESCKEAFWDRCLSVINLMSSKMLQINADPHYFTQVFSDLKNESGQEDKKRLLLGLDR
Sequence of CSNK1G1 (CK1 gamma 1) (Q9HCP0 whole entry): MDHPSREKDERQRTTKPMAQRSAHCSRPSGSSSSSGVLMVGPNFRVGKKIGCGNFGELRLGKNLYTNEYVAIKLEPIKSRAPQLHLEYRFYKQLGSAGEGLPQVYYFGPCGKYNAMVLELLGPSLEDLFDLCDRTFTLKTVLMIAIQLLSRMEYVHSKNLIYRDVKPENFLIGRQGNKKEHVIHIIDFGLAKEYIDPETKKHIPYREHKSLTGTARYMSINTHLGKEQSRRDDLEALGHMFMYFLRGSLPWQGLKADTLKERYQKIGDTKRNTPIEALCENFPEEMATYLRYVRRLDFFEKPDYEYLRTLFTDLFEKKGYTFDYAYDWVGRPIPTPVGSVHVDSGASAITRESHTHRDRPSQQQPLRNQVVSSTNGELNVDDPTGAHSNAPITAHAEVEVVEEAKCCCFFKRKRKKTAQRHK
Sequence of ABL1 (P00519 whole entry): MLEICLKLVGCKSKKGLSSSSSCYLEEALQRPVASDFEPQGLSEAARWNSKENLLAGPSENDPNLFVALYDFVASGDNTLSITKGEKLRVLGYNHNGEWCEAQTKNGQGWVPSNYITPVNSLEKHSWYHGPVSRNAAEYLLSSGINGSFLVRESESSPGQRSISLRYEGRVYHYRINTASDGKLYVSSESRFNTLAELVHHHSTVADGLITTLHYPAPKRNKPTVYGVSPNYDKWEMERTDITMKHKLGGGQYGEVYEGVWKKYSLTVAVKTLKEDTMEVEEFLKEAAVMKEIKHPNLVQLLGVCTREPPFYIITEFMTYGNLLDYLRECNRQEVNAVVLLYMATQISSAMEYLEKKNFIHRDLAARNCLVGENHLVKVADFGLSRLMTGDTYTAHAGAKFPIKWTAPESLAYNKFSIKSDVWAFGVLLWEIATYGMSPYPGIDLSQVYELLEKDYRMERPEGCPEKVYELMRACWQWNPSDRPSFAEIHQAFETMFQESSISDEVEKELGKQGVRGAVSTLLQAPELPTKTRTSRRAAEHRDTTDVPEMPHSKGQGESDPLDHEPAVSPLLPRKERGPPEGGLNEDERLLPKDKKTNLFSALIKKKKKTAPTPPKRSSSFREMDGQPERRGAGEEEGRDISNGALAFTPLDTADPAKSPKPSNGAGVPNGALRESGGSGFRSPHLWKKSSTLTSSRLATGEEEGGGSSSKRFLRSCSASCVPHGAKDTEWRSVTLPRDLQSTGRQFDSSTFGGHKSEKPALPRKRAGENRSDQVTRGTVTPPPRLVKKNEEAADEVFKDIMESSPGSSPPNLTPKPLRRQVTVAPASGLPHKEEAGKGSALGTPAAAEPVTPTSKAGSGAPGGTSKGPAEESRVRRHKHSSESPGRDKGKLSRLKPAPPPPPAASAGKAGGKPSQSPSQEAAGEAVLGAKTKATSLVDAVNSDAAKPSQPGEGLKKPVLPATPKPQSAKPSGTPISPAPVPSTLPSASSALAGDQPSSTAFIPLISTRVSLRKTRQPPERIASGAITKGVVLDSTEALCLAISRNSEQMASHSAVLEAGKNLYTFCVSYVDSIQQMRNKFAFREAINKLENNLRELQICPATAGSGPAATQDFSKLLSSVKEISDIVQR

Structure (SMILES): COc1ccc2nc3cc(Cl)ccc3c(Nc3cc(CN4CCCC4)c(O)c(CN4CCCC4)c3)c2n1 [Pyronaridine, 4-[(7-Chloro-2-methoxybenzo[b][1,5]naphthyridin-10-yl)amino]-2,6-bis(1-pyrrolidinylmethyl)phenol phosphate (1:4)]
- inhibition at 1 µM (KIT): -2%
- inhibition at 1 µM (PDGFRA T674I): 0%
- inhibition at 1 µM (RPS6KA2 (RSK3)): 0%
- inhibition at 1 µM (CDK5/p35): 3%
- inhibition at 1 µM (MAPK14 (p38 alpha)): 1%
- inhibition at 1 µM (CSNK1E (CK1 epsilon)): 1%
- inhibition at 1 µM (AKT2 (PKB beta)): 1%
- inhibition at 1 µM (CDK17/cyclin Y): -2%
- inhibition at 1 µM (INSR): 10%
- inhibition at 1 µM (STK4 (MST1)): -5%
- inhibition at 1 µM (NIM1K): -2%
- inhibition at 1 µM (FGFR3 K650E): -4%
- inhibition at 1 µM [1]: 1%
- inhibition at 1 µM (MAPK11 (p38 beta)): -8%
- inhibition at 1 µM (CSNK1G1 (CK1 gamma 1)): 0%
- inhibition at 1 µM (IRAK4): -6%
- inhibition at 1 µM (KSR2): 2%
- inhibition at 1 µM (PRKG2 (PKG2)): 1%
- inhibition at 1 µM (GSK3B (GSK3 beta)): 8%
- inhibition at 1 µM (RPS6KA1 (RSK1)): -1%
- inhibition at 1 µM (PDGFRA D842V): -1%
- inhibition at 1 µM (PAK2 (PAK65)): -1%
- inhibition at 1 µM (ABL1): 2%
- inhibition at 1 µM (PRKCZ (PKC zeta)): -1%
- inhibition at 1 µM (STK25 (YSK1)): -7%
- inhibition at 1 µM (MAP2K6 (MKK6)): 3%
- inhibition at 1 µM (IKBKB (IKK beta)): 1%
- inhibition at 1 µM (MET M1250T): 0%
